Common to all, as to format: functional
Assay [1] has as its system Staphylococcus aureus. The experiment in a line: Antibacterial activity against Staphylococcus aureus assessed as diameter of inhibition zone at 100 microg/ml incubated for 18 to 24 hrs by disc-diffusion method. To be noted: time 18-24 hrs, read-out: DIZ. For orientation: A growth-free zone around the sample is the usual read-out of agar diffusion tests.
Assay [2] deals with Escherichia coli. The experiment in a line: Antibacterial activity against Escherichia coli assessed as diameter of inhibition zone at 100 microg/ml incubated for 18 to 24 hrs by disc-diffusion method. Particulars: time 18-24 hrs, read-out: DIZ.
Assay [3] has as its system Bacillus subtilis. The experiment in a line: Antibacterial activity against Bacillus subtilis assessed as diameter of inhibition zone at 100 microg/ml incubated for 18 to 24 hrs by disc-diffusion method. To be noted: time 18-24 hrs, read-out: DIZ.
The test system of assay [4] is Staphylococcus aureus. Put plainly: Antibacterial activity against Staphylococcus aureus ATCC 6538P.
The subject of assay [5] is Pseudomonas aeruginosa. Put plainly: Antibacterial activity against Pseudomonas aeruginosa ATCC 9027.
Assay [6] has as its system Escherichia coli. Put plainly: Antibacterial activity against Escherichia coli ATCC 8739.
Assay [7] relates to Candida albicans. Put plainly: Antifungal activity against Candida albicans assessed as fungal growth inhibition.
The subject of assay [8] is Aspergillus niger. Put plainly: Antifungal activity against Aspergillus niger assessed as fungal growth inhibition.
Assay [9] relates to Bacillus subtilis. Put plainly: Antibacterial activity against Bacillus subtilis MTTC 441 assessed as reduction in bacterial growth.
The test system of assay [10] is Staphylococcus aureus. The experiment in a line: Antibacterial activity against Staphylococcus aureus MTCC 3160 assessed as reduction in bacterial growth.
For assay [11], the system named is Staphylococcus aureus. Put plainly: Antibacterial activity against Staphylococcus aureus assessed as diameter of inhibition zone incubated for 24 hrs by […]. For orientation: Dilution methods test growth across graded concentrations, often in twofold steps.
The test system of assay [12] is Staphylococcus aureus. Put plainly: Antibacterial activity against Staphylococcus aureus assessed as reduction in bacterial growth incubated for 24 hrs by broth microdilution method.
Assay [13] concerns Bacillus cereus. The experiment in a line: Antibacterial activity against Bacillus cereus NCIM-2156 by CLSI based microdilution assay.
The subject of assay [14] is Proteus vulgaris. The experiment in a line: Antibacterial activity against Proteus vulgaris NCIM-2027 by CLSI based microdilution assay.
The subject of assay [15] is Escherichia coli. Put plainly: Antibacterial activity against Escherichia coli NCIM-2065 by CLSI based microdilution assay.
Assay [16] concerns Bacillus subtilis. The experiment in a line: Antibacterial activity against Bacillus subtilis NCIM-2063 by CLSI based microdilution assay.
For assay [17], the system named is Staphylococcus aureus. The experiment in a line: Antibacterial activity against Staphylococcus aureus NCIM-2079 by CLSI based microdilution assay.
Assay [18] has as its system Bacillus subtilis. Put plainly: Antibacterial activity against Bacillus subtilis assessed as reduction in bacterial growth.
Assay [19] has as its system Escherichia coli. Put plainly: Antibacterial activity against Escherichia coli assessed as reduction in bacterial growth.
Assay [20] concerns Pseudomonas aeruginosa. The experiment in a line: Antibacterial activity against Pseudomonas aeruginosa assessed as reduction in bacterial growth.

Values after ≈ are worked out from the molar mass of the structure shown.

One may read the MIC as the smallest concentration in the dilution series that meets the test's criterion for growth inhibition.

Take `Sc1nncn1/N=C/c1cccc(Oc2ccccc2)c1`: the zone of inhibition at 100 µg/mL in [1], in [2] and in assay [3] was 15 mm throughout.
`CCn1cc(C(=O)O)c(=O)c2cc(F)c(N3CCN(Cn4nc(-c5ccncc5)n(-c5ccc(OC)cc5)c4=S)CC3)cc21`: the MIC in assay [4], in [5] and in [6] was 0.125 µg/mL (≈ 0.203 µM) in each case.
As for `Cc1ccc(NC(=O)Cn2cc(COc3ccc(C(=O)/C=C/c4ccc([N+](=O)[O-])cc4)cc3)nn2)cc1`, the MIC in [7] and in assay [8] was 125 µM (≈ 62.2 µg/mL) throughout.
For `O=C(Cn1cc(COc2cccc(/C=N/c3ccc(F)cc3)c2)nn1)Nc1ccc(Br)cc1`, the results for the minimal inhibitory concentration (MIC) in [9] and in assay [10] were 12 µM (≈ 6.1 µg/mL) and 6 µM (≈ 3.05 µg/mL), respectively.
`O=c1cc(OCCn2cc(Cn3cc(Cl)c(=O)n(Cc4cn(CCOc5cc(=O)oc6ccccc56)nn4)c3=O)nn2)c2ccccc2o1`: the “diameter of the inhibition zone (DIZ)” value in [11] came to 26 mm. Also, the MIC in assay [12] came to 7.23 µg/mL (≈ 10.6 µM).
For the compound `O=C(CNN1C(=O)CSC1c1ccc(-c2ccc(F)cc2)cc1)NN1C(c2ccncc2)=NNC1S` (stereo not given), the minimum inhibitory concentration (MIC) in assay [13], in assay [14], in assay [15], in [16] and in assay [17] was 3.12 µg/mL (≈ 5.97 µM) in each case.
As for `CCCCCCCCCCCCCCCc1nnc(S)n1/N=C\c1cc(OC)c(OC)c(OC)c1`, the MIC was determined as 24.7 µg/mL (≈ 48.9 µM) in assay [18], 24.7 µg/mL (≈ 48.9 µM) in assay [19] and 12.3 µg/mL (≈ 24.4 µM) in [20].

The values above are taken from ChEMBL document CHEMBL5634077, “Recent advances in 1,2,3- and 1,2,4-triazole hybrids as antimicrobials and their SAR: A critical review” (2023).
